One data set addresses T1, CYP2D6 (Homo sapiens, UniProt P10635).
T1 construct: host or cells: insect cell microsomes
As to the kind of experiment: Cytochrome inhibition, fluorescent detection (AMMC substrate). To be noted: recombinant human CYP2D6. The format is in vitro ADME. The protocol: (§1) To screen the inhibition potential of the compounds, recombinant human cytochrome P450 enzymes (CYP1A2, CYP2C9, CYP2C19, CYP2D6, and CYP3A4) and probe substrates were used with the fluorescent detection method. Incubations were conducted in 200-µL volume 96 well microtiter plates (COSTAR 3915). Addition of cofactor-buffer mixture (KH2PO4 buffer, 1.3 mM NADP+, 3.3 mM MgCl2, 3.3 mM Glucose-6-phosphate and 0.4 U/mL Glucose-6-phosphate Dehydrogenase), supersomes control, standard inhibitors (Furafyline, Tranylzypromine, Ketoconazole, Sulfaphenazole, and Quinidine; from Sigma Aldrich), and test compounds to plates were carried out using a a liquid handling station (Zephyr Caliper). The plate was then pre-incubated at 37 °C for 5 min, and the reaction initiated by the addition of pre-warmed enzyme/substrate (E/S) mix. […] Fluorescence per well was measured using a fluorescence plate reader (Tecan M1000 pro), and the percentage of inhibition was calculated.

A short description of data set [1]: Microsomal stability in mice microsomes. To be noted: 37 °C, 0-60 min. The format is in vitro ADME. The protocol: The human, rat, and mice microsomes employed were purchased from Tebu-Xenotech. The compound was incubated at 37 °C with the microsomes in a 50 mM phosphate buffer (pH = 7.4) containing 30 mM MgCl2, 10 mM NADP, 100 mM glucose-6-phosphate and 20 U/mL glucose-6-phosphate-dehydrogenase. Samples (75 µL) were taken from each well at 0, 10, 20, 40, and 60 min and transferred to a plate containing 4 °C 75 µL acetonitrile. Then, 30 µL of 0.5% formic acid in water was added to improve the chromatographic conditions. The plate was centrifuged (46,000× g, 30 min) and supernatants were taken and analyzed in a UPLC-MS/MS (Xevo-TQD, Waters) by employing a BEH C18 column and an isocratic gradient of 0.1% formic acid in water: 0.1% formic acid acetonitrile (60:40) for 5 minutes and a flow of 0.25 mL/min. The metabolic stability of the compounds was calculated from the logarithm of remaining compounds at each time point studied.

A further data set deals with T2, CYP2C9 (Homo sapiens, UniProt P11712).
T2 construct: host or cells: insect cell microsomes
As to the kind of experiment: Cytochrome inhibition, fluorescent detection (7-MFC substrate). The format is in vitro ADME. The following applies: recombinant human CYP2C9. The protocol: as §1

A further data set deals with SAMR1 and SAMP8 mice. As to the kind of experiment: Oxidative stress: hydrogen peroxide levels (fluorimetric kit). Format: in vivo, mouse. To be noted: hippocampus, both RL-208 treated mice groups vs control groups. Here is the method:
Male SAMR1 and SAMP8 mice (n = 41) with 20-weeks-old were used to carry out cognitive and molecular analysis. The animals were randomly divided into four groups: SAMR1 control (SR1 Ct) group (n = 11), SAMP8 control (SP8 Ct) group (n = 8), SAMR1 treated with RL-208 (SR1 RL-208 (5 mg/Kg)) group (n = 10) and SAMP8 treated with RL-208 (SP8 RL-208 (5 mg/Kg)) group (n = 12). Animals had free access to food and water, under standard temperature conditions (22±2 °C) and 12h:12h light-dark cycles (300 lux/0 lux). RL-208, (3,4,8,9-tetramethyltetracyclo[4.4.0.0^3,9.0^4,8]dec-1-yl)-methylamine hydrochloride, (5 mg/kg/day) was administered through drinking water for four weeks before starting the cognitive test. RL-208 was administered up to euthanasia (Figure 1A). Water consumption was controlled each week for each cage and strain. Afterwards, RL-208 concentration was adjusted accordingly to reach the optimal dose for each cage. […]

The target in the next data set is T3, CYP3A4 (Homo sapiens, UniProt P08684).
T3 construct: host or cells: insect cell microsomes
As to the kind of experiment: Cytochrome inhibition, fluorescent detection (7-BFC and DBF substrates). Format: in vitro ADME. Here is the method: as §1

SMILES strings stand for the structures.

T3 sequence (P08684 whole entry): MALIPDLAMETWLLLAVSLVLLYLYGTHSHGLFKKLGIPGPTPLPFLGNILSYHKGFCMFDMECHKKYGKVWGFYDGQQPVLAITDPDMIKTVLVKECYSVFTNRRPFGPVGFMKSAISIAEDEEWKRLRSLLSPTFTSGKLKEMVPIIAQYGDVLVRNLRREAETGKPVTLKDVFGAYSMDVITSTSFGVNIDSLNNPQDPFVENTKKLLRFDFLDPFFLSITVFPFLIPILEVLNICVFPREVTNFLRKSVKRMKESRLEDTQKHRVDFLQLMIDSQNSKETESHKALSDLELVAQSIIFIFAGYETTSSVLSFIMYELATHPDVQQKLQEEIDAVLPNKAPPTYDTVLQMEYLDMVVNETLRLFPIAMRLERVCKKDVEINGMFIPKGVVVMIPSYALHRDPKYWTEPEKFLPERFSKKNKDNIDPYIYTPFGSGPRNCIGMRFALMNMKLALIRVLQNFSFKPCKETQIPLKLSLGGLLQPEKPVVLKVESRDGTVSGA
T1 sequence (P10635 whole entry): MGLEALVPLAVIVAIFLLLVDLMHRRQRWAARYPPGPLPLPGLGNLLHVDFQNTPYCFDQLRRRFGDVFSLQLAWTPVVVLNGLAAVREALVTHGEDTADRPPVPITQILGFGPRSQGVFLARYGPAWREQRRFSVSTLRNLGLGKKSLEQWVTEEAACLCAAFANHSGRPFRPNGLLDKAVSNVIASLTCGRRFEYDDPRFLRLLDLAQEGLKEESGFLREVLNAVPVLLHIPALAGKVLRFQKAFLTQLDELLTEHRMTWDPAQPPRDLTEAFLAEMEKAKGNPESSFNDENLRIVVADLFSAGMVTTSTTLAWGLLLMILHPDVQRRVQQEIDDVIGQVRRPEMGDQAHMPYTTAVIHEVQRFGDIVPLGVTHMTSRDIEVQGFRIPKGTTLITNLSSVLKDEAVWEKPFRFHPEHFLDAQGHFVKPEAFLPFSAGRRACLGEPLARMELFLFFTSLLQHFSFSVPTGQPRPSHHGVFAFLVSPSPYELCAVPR
T2 sequence (P11712 whole entry): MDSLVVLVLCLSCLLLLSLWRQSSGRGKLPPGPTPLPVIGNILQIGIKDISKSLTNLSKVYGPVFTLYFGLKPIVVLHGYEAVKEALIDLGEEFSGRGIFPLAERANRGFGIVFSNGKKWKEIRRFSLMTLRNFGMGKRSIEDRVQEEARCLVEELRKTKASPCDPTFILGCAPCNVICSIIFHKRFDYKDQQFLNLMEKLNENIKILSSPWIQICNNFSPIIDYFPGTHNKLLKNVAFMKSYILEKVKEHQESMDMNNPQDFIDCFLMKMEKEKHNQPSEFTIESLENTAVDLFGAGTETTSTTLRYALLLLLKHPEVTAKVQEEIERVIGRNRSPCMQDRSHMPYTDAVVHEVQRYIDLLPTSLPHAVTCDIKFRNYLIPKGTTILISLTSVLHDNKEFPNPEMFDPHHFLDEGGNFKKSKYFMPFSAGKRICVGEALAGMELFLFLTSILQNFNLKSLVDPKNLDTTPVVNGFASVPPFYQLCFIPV

Regarding `CC12CC3CC1(C)C1(C)CC3(CN)CC21C.Cl` [RL-208, (3,4,8,9-tetramethyltetracyclo [4.4.0.0^3,9.0^4,8]dec-1-yl)methylamine hydrochloride], the CYP2D6 inhibition at CYP2D6 stood at 10 ± 3%. In data set [1], the microsomal stability entry is reported as “good”. The CYP2C9 inhibition on CYP2C9 is 12 ± 2%. In the data set on SAMR1 and SAMP8 mice, the “hydrogen peroxide (ROS) levels” value is listed as “significant decrease”. On CYP3A4 (recombinant human CYP3A4, substrate BFC), the “CYP3A4 (BFC) inhibition” value amounted to 35 ± 4%. Besides, the “CYP3A4 (DBF) inhibition” value at CYP3A4 (recombinant human CYP3A4, substrate DBF) is reported as 3 ± 1%.
